Each structure is given as a SMILES string. Values after ≈ are worked out from the molar mass of the structure shown.

The conditions of the series: buffer; pH 7.4; 200.0 µM.
Turning to `Oc1ccccc1C=Nc1cccc2ccccc12`, the solubility (kinetic) (in general, the concentration staying in solution when a stock, usually in DMSO, is diluted into the medium) was 9.4 µg/mL (≈ 38 µM).
To `COC(OC)C(C)NC(=O)NC(=O)c1ccccc1Cl` (stereo not drawn) belongs 39.2 µg/mL (≈ 130 µM).
In turn, `Cc1nc(NC(=O)COC(=O)C2CC2C)c(Cl)cc1Cl` (stereo not drawn) showed a kinetic solubility of over 47.6 µg/mL.
The compound `CN(C)c1cc2c(cc1NS(=O)(=O)c1ccccc1)n(C)c(=O)n2C` came in with a solubility (kinetic) of 48 µg/mL (≈ 133 µM).
The compound `Cc1cc(=O)oc2cc(OCC(=O)N3CCC(C(N)=O)CC3)ccc12` gave a solubility (kinetic) of over 51.7 µg/mL.
Compound `O=C(C[n+]1ccccc1)Nc1ccc(Cl)c([N+](=O)[O-])c1.[Cl-]` showed a solubility (kinetic) of over 49.2 µg/mL.
The figure for `O=C(CCNC(=O)c1ccco1)Nc1ccc(Cl)cc1F` is over 46.6 µg/mL; for `COc1ccc(-n2c(C)nnc2SCC(=O)NC2CC2)cc1` it is over 47.8 µg/mL; for `Cc1[nH]c2ccc(OCc3ccccc3)cc2c1CCN.Cl` it is over 47.5 µg/mL.
In the case of `CCOc1ccccc1Nc1nnc(SCC(=O)NCC2CCCO2)s1` (stereo not drawn), the solubility (kinetic) is over 59.2 µg/mL.
As for `Cc1cccc(-n2c(=O)c3c(C)c(C)sc3n(CC(N)=O)c2=O)c1`, the kinetic solubility is over 51.5 µg/mL.
In the case of `C=CCn1ccc(O)c(Cc2ccc(Cl)cc2)c1=O`, the kinetic solubility worked out at 38.6 µg/mL (≈ 140 µM).
`CCC(Oc1ccc(C)c(C)c1)C(=O)N1CCCN(C)CC1` (stereo not drawn) yielded a kinetic solubility of over 45.7 µg/mL.
The figure for `Cc1c(-c2nc(-c3ccc(C(C)(C)C)cc3)no2)n(C)oc1=O` is under 0.2 µg/mL; for `O=C(NCc1csc(-c2ccccc2)n1)c1cc(F)cc2c1OCOC2` it is 5.7 µg/mL (≈ 15.4 µM).
`N/C(=N\OC(=O)c1ccncc1)c1cccc([N+](=O)[O-])c1` yielded a kinetic solubility of 25.6 µg/mL (≈ 89.4 µM).
With `CC(=O)Nc1ccc(S(=O)(=O)NCC(=O)OCC(=O)c2ccc[nH]2)cc1`, the kinetic solubility was over 56.9 µg/mL.
Compound `COc1ccc(C)cc1S(=O)(=O)n1cnc(C)c1` had a kinetic solubility of over 39.9 µg/mL.
Turning to `Cc1cccc(C(=O)NCC(=O)NC(C)CCc2ccccc2)c1` (stereo not drawn), the kinetic solubility is 40.8 µg/mL (≈ 126 µM).
`Cc1cc(C(=O)COC(=O)c2cccn2C)c(C)n1Cc1ccco1` yielded a solubility (kinetic) of 2.8 µg/mL (≈ 8.23 µM).
The figure for `CCCCNC(=O)c1ccccc1SCc1c(C)noc1C` is over 47.8 µg/mL.
Regarding `Cc1ccc(OC(=O)CCC(=O)Nc2ccc(C)c(C)c2)cc1`, the solubility (kinetic) was found to be 43.2 µg/mL (≈ 139 µM).
To `Clc1ccc(Cl)c(OCCCCN2CCCCC2)c1` belongs 29.5 µg/mL (≈ 97.6 µM).
`O=C(NCc1ccccc1Cl)c1ccc[nH]1` yielded a kinetic solubility of 31.5 µg/mL (≈ 134 µM).
To `Cc1cccc2nc3ccccc3cc12` belongs 6.8 µg/mL (≈ 35.2 µM).
On to `CC(OC(=O)/C=C/c1cccc(F)c1)C(=O)NC1CCCCC1C` (stereo not drawn), for which the solubility (kinetic) is 1.9 µg/mL (≈ 5.7 µM).
`O=C(NCC(=O)N1CCN(c2ccccc2)CC1)c1ccccc1` returned a solubility (kinetic) of over 48.5 µg/mL.
`O=C(Nc1ccc(F)c(Cl)c1)c1cccnc1` returned a kinetic solubility of 24.5 µg/mL (≈ 97.7 µM).
Compound `CCOC(=O)c1c(C)noc1-c1ccco1` returned a kinetic solubility of 7.5 µg/mL (≈ 33.9 µM).
`COc1ccc(C(=O)NC(=S)N(C)C2CCCCC2)cc1Br`: the kinetic solubility is 0.7 µg/mL (≈ 1.82 µM).
The figure for `COCC(=O)Nc1ccc(N2CCN(c3ccccc3)CC2)c(F)c1` is 2 µg/mL (≈ 5.82 µM); for `O=S(=O)(/N=C(/Nc1cccnc1Cl)c1ccccc1)c1ccccc1` it is over 55.8 µg/mL; for `Cc1ccccc1C(=O)/C=C1/SCC(=O)N1C` it is over 37.1 µg/mL.
For `CS(=O)(=O)c1ccc(C(=O)NCC2(N3CCOCC3)CCCCC2)cc1`, the solubility (kinetic) is over 57.1 µg/mL.
As for `CN(C)C(=O)CN1CCN(Cc2nc(CC3CC3)no2)CC1`, the kinetic solubility is over 46.1 µg/mL.
Consider `Cc1ccc2c(c1)C(O)(CC(=O)c1cccc(-n3cccc3)c1)C(=O)N2` (stereo not drawn), for which the solubility (kinetic) came to 7.2 µg/mL (≈ 20.8 µM).
In turn, `Cc1ccc(O)c(CNc2nc3ccccc3[nH]2)c1` gave a solubility (kinetic) of over 38 µg/mL.
Regarding `Cc1ccc(NC(=O)C(C)NC(=O)OCc2ccccc2)cc1C` (stereo not drawn), the kinetic solubility amounted to 2.4 µg/mL (≈ 7.35 µM).
Regarding `CCOc1ncccc1C(=O)Nc1ccccc1N1CCOCC1`, the kinetic solubility is over 49.1 µg/mL.
`COc1ccc(N2CCN(CC(=O)Nc3ccc(C)cc3)CC2)cc1` came in with a solubility (kinetic) of 46.8 µg/mL (≈ 138 µM).
On to `CC(=O)c1ccc(OCC(=O)NCc2ccc(F)cc2)cc1`, for which the kinetic solubility was over 45.2 µg/mL.
For `COc1ccc(-c2c(C)nn(-c3ccccc3)c2NC(C)=O)cc1OC`, the solubility (kinetic) is over 52.7 µg/mL.
To `O=C(N/C(=C\c1ccco1)C(=O)N1CCCC1CO)c1ccccc1` (stereo not drawn) belongs over 51.1 µg/mL; to `Nc1ncnc(Oc2ccccc2F)c1[N+](=O)[O-]`, 34.3 µg/mL (≈ 137 µM); to `Brc1ccc2[nH]c3c(c2c1)CCC3`, 3.1 µg/mL (≈ 13.1 µM).
`Cc1ccccc1C(=O)NC(C(N)=O)P(=O)(OC(C)C)OC(C)C` (stereo not drawn) displayed a solubility (kinetic) of over 53.5 µg/mL.
To `Cc1ccc(CN2CCN(C(=O)c3cccc4ccccc34)CC2)cc1.O=C(O)C(=O)O` belongs 59.6 µg/mL; to `Cc1ccc(C(=O)N2CCN=C2SCc2ccc([N+](=O)[O-])cc2)cc1C`, 0.3 µg/mL (≈ 0.812 µM); to `CCOc1ccc(NC(=O)c2ccccc2SC)cc1`, 2.4 µg/mL (≈ 8.35 µM).
`NC(=O)C1CC12c1ccccc1-c1ccccc12` (stereo not drawn) gave a solubility (kinetic) of 22 µg/mL (≈ 93.5 µM).
`O=C(N/N=C/c1ccccc1Cl)C1CC1` gave a solubility (kinetic) of over 33.4 µg/mL.
For the compound `Cc1ccc(CC(=O)OCC(=O)c2ccc[nH]2)cc1C`, the kinetic solubility was found to be 10.9 µg/mL (≈ 40.2 µM).
To `CCOC(=O)c1c(C)[nH]c(C(=O)OCc2ccccc2F)c1C` belongs under 0.7 µg/mL.
`COc1ccc(NC(=O)C2=CC=CN3CCS(=O)(=O)N=C23)c(OC)c1` had a kinetic solubility of 13.8 µg/mL (≈ 38 µM).
For the compound `CCOc1ccc(C(NC(=O)CC)c2c(O)ccc3ccccc23)cc1` (stereo not drawn), the kinetic solubility came out at 2 µg/mL (≈ 5.72 µM).
Turning to `COc1ccccc1NC(=O)c1ccccc1NC(=O)c1cccs1`, the kinetic solubility is under 0.4 µg/mL.
The figure for `Cc1ccc(OCc2nc3ccccc3n2C)cc1` is 5.7 µg/mL (≈ 22.6 µM); for `COc1ccc(C(=O)Nc2nc3ccc(OC)cc3s2)cc1` it is 1.4 µg/mL (≈ 4.45 µM); for `COc1ccc(CNC(=S)NCc2ccc(F)cc2)cc1` it is 9.5 µg/mL (≈ 31.2 µM).
The figure for `CCOc1ccc(NS(=O)(=O)c2cc(C)c(C)cc2C)cc1` is 10.2 µg/mL (≈ 31.9 µM); for `Cc1[nH]c2ccc(C(=O)N3CCCCC3)cc2c1C` it is over 38.5 µg/mL; for `O=[N+]([O-])c1ccccc1S(=O)(=O)N(CC1CO1)c1ccccc1` (stereo not drawn) it is over 50.2 µg/mL.
`CCOc1ccccc1NC(=O)c1csc(C)c1C`: the kinetic solubility is 16.5 µg/mL (≈ 59.9 µM).
Consider `COc1ccc(NC(=O)c2ccc(S(=O)(=O)C(F)F)cc2)c(OC)c1`, for which the kinetic solubility turned out to be 13.1 µg/mL (≈ 35.3 µM).
With `O=C(N/N=C/c1ccoc1)c1ccccc1F`, the solubility (kinetic) was over 34.8 µg/mL.
For `CCC(C)c1ccc(NC(=S)N2CCN(S(C)(=O)=O)CC2)cc1` (stereo not drawn), the kinetic solubility was found to be 8.8 µg/mL (≈ 24.8 µM).
The compound `O=C(c1ccc(C(F)(F)F)cc1)C1CCCN(C(=O)c2cnccn2)C1` (stereo not drawn) displayed a kinetic solubility of 45.6 µg/mL (≈ 126 µM).
Consider `CC1CCN(C(=O)c2cc3ccccc3cc2O)CC1`, for which the kinetic solubility is over 40.4 µg/mL.
`CC(=O)NCCc1c[nH]c2ccc(O)cc12` registered a solubility (kinetic) of over 32.7 µg/mL.
`Cc1ccc2nc(-c3ccccc3NC(=O)CCC(=O)O)c(=O)[nH]c2c1` displayed a kinetic solubility of over 52.7 µg/mL.
On to `O=S(=O)(Cc1ccc(Cl)cc1)N1CCCCCC1`, for which the solubility (kinetic) turned out to be 4.5 µg/mL (≈ 15.6 µM).
`Cc1cc(C(=O)NC2CCCCCCC2)ccc1[N+](=O)[O-]` returned a solubility (kinetic) of 1.1 µg/mL (≈ 3.79 µM).
`CCC(C(=O)O)n1cnc2scc(-c3ccc(C)c(C)c3)c2c1=O` (stereo not drawn) showed a kinetic solubility of over 51.4 µg/mL.
On to `CN(C)c1ccc(P(=O)(OC2CCCCC2)C(O)c2ccccn2)cc1` (stereo not drawn), for which the solubility (kinetic) was over 56.2 µg/mL.
The compound `Cc1nccc(-c2ccc3c(c2)OCO3)n1` had a solubility (kinetic) of 30.3 µg/mL (≈ 141 µM).
The compound `CCc1ccc(NC(=S)N(Cc2ccccc2)Cc2ccccn2)cc1` displayed a kinetic solubility of 2.4 µg/mL (≈ 6.64 µM).
The compound `O=C(Nc1ccc(N2CCCC2)cc1)c1ccc(Br)cc1` registered a solubility (kinetic) of 1.4 µg/mL (≈ 4.06 µM).
`Nc1ncccc1OCc1ccc(Cl)c(Cl)c1` registered a kinetic solubility of 29.7 µg/mL (≈ 110 µM).
Consider `CC1CCCC(NC(=O)CSc2ncnc3ccccc23)C1C` (stereo not drawn), for which the kinetic solubility worked out at 24.1 µg/mL (≈ 73.1 µM).
The compound `O=C(Cn1c(CO)nc2ccccc21)NCc1ccc2c(c1)OCO2` showed a kinetic solubility of over 50.9 µg/mL.
To `CN(C)c1ccc(C=NCCc2ccc(S(N)(=O)=O)cc2)cc1` belongs 37.1 µg/mL (≈ 112 µM); to `CCC1(C)Cc2ccccc2-c2nc[nH]c(=O)c21` (stereo not drawn), 2.8 µg/mL (≈ 11.7 µM); to `CCOC1OC(=O)C(Cl)=C1Nc1ccc(C)cc1` (stereo not drawn), over 40.2 µg/mL.
On to `NC(=O)CN1C(=O)C(=O)N(Cc2ccc(Cl)cc2)C1=O`, for which the solubility (kinetic) was over 44.4 µg/mL.
Take `CNC(=O)N1c2ccccc2C=Cc2ccccc21`: the kinetic solubility is over 37.5 µg/mL.
The compound `CCOc1ccc(/C=C2\SC(=S)N(C(C(=O)O)c3ccccc3)C2=O)cc1OC` (stereo not drawn) came in with a kinetic solubility of over 64.4 µg/mL.
For `CC(C)N(Cc1ccccc1)C(=O)CCc1ccccc1`, the solubility (kinetic) was 36.8 µg/mL (≈ 131 µM).
The compound `Cc1cccc(NP(=O)(Oc2ccccc2)Oc2ccccc2)c1C` registered a solubility (kinetic) of under 0.8 µg/mL.
`O=C(O)C(Cc1ccc(Cl)cc1)Sc1nc2ccccc2[nH]1` (stereo not drawn): the solubility (kinetic) was found to be 42.3 µg/mL (≈ 127 µM).
Take `CS(=O)(=O)c1ccc(C(=O)OCC(=O)NCc2cccs2)cc1[N+](=O)[O-]`: the kinetic solubility was determined as 16.1 µg/mL (≈ 40.4 µM).
Compound `COc1ccc(NC(=O)CC(Cc2ccc(Cl)cc2)C(=O)O)cc1` (stereo not drawn) came in with a solubility (kinetic) of over 52.2 µg/mL.
To `O=C(CN1C(=O)NC2(CCCC2)C1=O)NCc1ccc(F)cc1` belongs over 47.9 µg/mL; to `Cc1ccccc1CC(=O)N1CC(C)OC(C)C1` (stereo not drawn), over 37.1 µg/mL.
`CC(C)S(=O)(=O)c1cnc(-c2cccnc2)nc1N` returned a kinetic solubility of 37.7 µg/mL (≈ 135 µM).
As for `Cc1ccc(C(=O)Nc2ccccc2C(=O)NCc2ccco2)cc1`, the solubility (kinetic) was 4.6 µg/mL (≈ 13.8 µM).
With `Cc1ccc(OCC(=O)NCCNC(=O)c2ccco2)cc1C`, the solubility (kinetic) is over 47.5 µg/mL.
For the compound `CCOc1ccc(S(=O)(=O)N(C)CC(=O)NCc2ccccn2)cc1`, the solubility (kinetic) came out at 50.2 µg/mL (≈ 138 µM).
For `Cn1c(/C=C/c2ccccc2)nc2ccccc21`, the solubility (kinetic) came out at 21.9 µg/mL (≈ 93.5 µM).
Regarding `CC(=O)N(C)c1ccc(NC(=S)NCC(C)C)cc1`, the solubility (kinetic) is over 41.9 µg/mL.
The figure for `Cc1cc(C(=O)N2CCN(c3ccc([N+](=O)[O-])cc3)CC2)co1` is over 47.3 µg/mL.
In turn, `CC(C)CNC(=O)CSc1nnc2ccccn12` returned a solubility (kinetic) of over 39.7 µg/mL.
Regarding `COc1cccc(/C=C/C(=O)OCC(=O)Nc2cccc(S(=O)(=O)NC3=NCCCCC3)c2)c1`, the kinetic solubility turned out to be 13.5 µg/mL (≈ 27.8 µM).
As for `NS(=O)(=O)c1ccc(NC(=S)NC(=O)c2cccs2)cc1`, the solubility (kinetic) was 6.2 µg/mL (≈ 18.2 µM).

(Values after PubChem BioAssay AID1996.)
